3 compounds from ChEMBL document CHEMBL3886216, “Triazine carboxamides as sodium channel blockers” (2015) can be followed below.

For orientation: IC50 means the concentration at which inhibition is half-maximal.

SMILES strings stand for the structures.

Chain of Sodium channel protein type 9 subunit alpha (Q15858 whole entry): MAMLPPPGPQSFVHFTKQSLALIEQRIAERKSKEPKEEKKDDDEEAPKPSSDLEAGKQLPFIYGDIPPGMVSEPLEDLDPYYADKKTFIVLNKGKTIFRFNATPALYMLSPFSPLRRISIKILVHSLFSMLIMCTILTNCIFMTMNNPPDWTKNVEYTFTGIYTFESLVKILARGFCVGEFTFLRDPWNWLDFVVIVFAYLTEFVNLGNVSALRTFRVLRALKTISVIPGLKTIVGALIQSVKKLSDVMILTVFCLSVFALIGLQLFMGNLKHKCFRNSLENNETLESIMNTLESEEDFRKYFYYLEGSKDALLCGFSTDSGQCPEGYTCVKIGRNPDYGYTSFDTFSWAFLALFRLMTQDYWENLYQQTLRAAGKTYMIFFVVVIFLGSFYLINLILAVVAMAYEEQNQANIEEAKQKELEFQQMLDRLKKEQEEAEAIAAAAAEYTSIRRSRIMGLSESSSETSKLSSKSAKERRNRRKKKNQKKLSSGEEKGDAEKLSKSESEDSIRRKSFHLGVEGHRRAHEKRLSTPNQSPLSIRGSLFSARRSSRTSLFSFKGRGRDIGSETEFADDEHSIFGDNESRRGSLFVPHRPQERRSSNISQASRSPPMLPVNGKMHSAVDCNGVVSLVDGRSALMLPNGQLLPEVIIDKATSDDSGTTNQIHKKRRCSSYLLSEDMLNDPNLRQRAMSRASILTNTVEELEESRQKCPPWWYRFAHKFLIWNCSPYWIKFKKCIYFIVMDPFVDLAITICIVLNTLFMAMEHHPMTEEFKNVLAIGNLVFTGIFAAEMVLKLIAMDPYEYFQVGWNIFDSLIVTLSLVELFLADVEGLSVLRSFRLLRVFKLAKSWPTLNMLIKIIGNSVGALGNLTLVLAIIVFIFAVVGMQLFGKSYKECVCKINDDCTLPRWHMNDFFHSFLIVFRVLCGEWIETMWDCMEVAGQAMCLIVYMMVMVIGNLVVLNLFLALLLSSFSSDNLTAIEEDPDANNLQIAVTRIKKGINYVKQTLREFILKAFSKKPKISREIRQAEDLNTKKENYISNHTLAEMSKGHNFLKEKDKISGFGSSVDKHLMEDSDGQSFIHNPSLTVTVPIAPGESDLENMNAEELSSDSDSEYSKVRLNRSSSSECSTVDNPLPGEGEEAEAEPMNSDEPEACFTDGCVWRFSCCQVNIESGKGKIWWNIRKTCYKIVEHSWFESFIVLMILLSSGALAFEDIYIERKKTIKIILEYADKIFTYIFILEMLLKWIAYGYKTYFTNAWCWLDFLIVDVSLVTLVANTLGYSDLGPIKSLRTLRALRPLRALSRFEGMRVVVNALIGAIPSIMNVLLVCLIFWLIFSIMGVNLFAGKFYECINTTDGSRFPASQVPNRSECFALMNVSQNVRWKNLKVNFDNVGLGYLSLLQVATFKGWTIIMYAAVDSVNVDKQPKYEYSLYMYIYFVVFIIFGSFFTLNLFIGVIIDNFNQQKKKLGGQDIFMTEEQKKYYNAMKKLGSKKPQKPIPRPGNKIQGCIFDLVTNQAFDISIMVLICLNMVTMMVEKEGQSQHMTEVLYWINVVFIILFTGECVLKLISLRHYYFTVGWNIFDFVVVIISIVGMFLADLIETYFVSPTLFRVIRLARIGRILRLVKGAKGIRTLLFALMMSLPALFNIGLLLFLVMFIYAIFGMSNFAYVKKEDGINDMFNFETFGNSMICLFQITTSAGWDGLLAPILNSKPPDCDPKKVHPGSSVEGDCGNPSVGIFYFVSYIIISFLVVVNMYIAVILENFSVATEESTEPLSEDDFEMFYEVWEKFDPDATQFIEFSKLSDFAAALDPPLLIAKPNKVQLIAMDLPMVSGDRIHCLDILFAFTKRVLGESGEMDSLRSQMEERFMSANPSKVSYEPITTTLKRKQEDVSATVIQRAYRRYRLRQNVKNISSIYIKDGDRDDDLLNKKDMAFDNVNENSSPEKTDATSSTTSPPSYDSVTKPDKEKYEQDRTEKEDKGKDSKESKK

This test addresses Sodium channel protein type 9 subunit alpha (Homo sapiens, UniProt Q15858). The test can be described thus: FLIPR Assay: […] Sodium Dye Assay with KCl: Cells were prepared by plating the recombinant HEK293 cells or other host cells expressing either recombinant or non-recombinant, native, Nav1.7 alpha subunit, alone or in combination with various beta and gamma subunits at a density of ~40,000 cells/well into a 96-well black, clear-bottom, PDL-coated plate. The assay can be adapted to 384-well or 1,536-well format, if desired, using proportionately fewer cells and less media. The plate was then incubated in growth media, with or without selective antibiotic, overnight at 37 C. at 5% CO2, 95% humidity, in preparation for the assay. For counter-screens of other voltage-gated sodium channels, the procedure was very similar, though optimal densities of cells, media and subsequent assay components can be fine-tuned for the particular cell line or isoform. […] Membrane Potential Assay with KCl: Cells are prepared by plating the recombinant HEK293 cells. Format: cell-based. Background: The purpose of a counterscreen is to sort out artefacts and off-target activity.
As to `N#Cc1nc(-c2ccc(Oc3ccc(OC(F)(F)F)cc3)cc2)nc(N2CCOCC2)n1`, the half-maximal inhibitory concentration (IC50) was more than 20 µM.

For the compound `NC(=O)c1nc(N[C@H]2CCNC2=O)nc(-c2ccc(Oc3ccc(C(F)(F)F)cn3)cc2)n1`, the IC50 amounted to 1.8 µM.

For the compound `N#Cc1nc(N[C@H]2CCNC2=O)nc(-c2ccc(Oc3ccc(C(F)(F)F)cn3)cc2)n1`, the IC50 was more than 20 µM.
